We go through eight substances from US20250223328A1, “TRUNCATED DOMINANT NEGATIVE CEBPB AND CEBPD PROTEINS AND METHODS OF USE FOR DECREASING VIABILITY OF NEOPLASTIC CELLS” (The Trustees of Columbia University in the City of New York, priority 2022, published 2025).

Experiment [1] relates to HCT116 colon cancer cells. In words: Apoptotic nuclei in HCT116 cells transfected with DNA vectors expressing the constructs. Format: cell-based. The source says: FIG. 1 is a graph reporting exemplary data showing 3-box dominant negative forms of CEBPD promote apoptotic death of cancer cells. Replicate cultures of HCT116 colon cancer cells were transfected with DNA vectors expressing D-mut (a control peptide containing only the leucine zipper domain of CEBPD with all leucines in position 5 (also referred to as position “d”) of the heptad repeats mutated to glycine to suppress leucine zipper binding activity), D-1234, D-123, and D-234. Three days later, transfected cells were scored for proportion with apoptotic nuclei. Data represent means±SEM (n=4). P values vs D-mut (T-test): D-1234, p=0.0005; D-123, p=0.0014; D-234, p=0.0003.
FIG. 2 is a graph reporting exemplary data showing 2-box dominant negative forms of CEBPD promote apoptotic death of cancer cells. Replicate cultures of HCT116 cells were transfected with DNA vectors expressing D-mut, D-1234, D-12, D-23, or D-34. Three days later, transfected cells were scored for proportion with apoptotic nuclei. Data represent means±SEM (n=12 from 3 independent experiments). P values vs D-mut: D-1234, p<0.0001; D-12, p=0.056; D-23, p<0.001; D-34, p=0.0008.
FIG. 12 is a graph reporting exemplary data showing D-123EWE and D-123EKE peptides promote apoptotic death of cancer cells. Replicate cultures of HCT116 cells were transfected with an empty DNA vector or DNA vectors expressing D-123, D-123EWE, or D-123EKE. Two days later, transfected cells were scored for proportion with apoptotic nuclei. Data are pooled from two independent experiments, each with n=4. Data represent means±SEM.

Experiment [2] concerns T98G, MDA-MB-231, A375, Shep21N, and CHLA255 cell lines. Nature of the experiment: Cell numbers after 6 days of peptide treatment in a panel of cancer cell lines. The class given is cell-based. As to conditions: medium with 2% fetal bovine serum, five cell lines. On the procedure:
FIGS. 3A-3E are graphs reporting exemplary data showing truncated dominant negative forms of CEBPD reduce cancer cell numbers. Replicate cultures of T98G (FIG. 3A), MDA-MB-231 (FIG. 3B), A375 (FIG. 3C), Shep21N (FIG. 3D), and CHLA255 (FIG. 3E) cell lines were treated with CP-D-123 at the indicated concentrations for 6 days in culture medium containing 2% fetal bovine serum and then assessed for cell numbers. Values are given as means±SEM (N=3 replicate cultures).
FIGS. 4A-4E are graphs reporting exemplary data showing truncated dominant negative forms of CEBPD reduce cancer cell numbers. Replicate cultures of T98G (FIG. 4A), MDA-MB-231 (FIG. 4B), A375 (FIG. 4C), Shep21N (FIG. 4D), and CHLA255 (FIG. 4E) cell lines were treated with CP-D-123, CP-D-234, and Bpep (at 20 μM in T98G, MDA-MB-231, A375 only) at the indicated concentrations for 6 days in culture medium containing 2% fetal bovine serum and then assessed for cell numbers. Values are given as means±SEM (N=3 replicate cultures).

Where [3] appears, read: HCT116, three days after transfection, control D-mut.
The mark [4] stands for this setting: HCT116, two days after transfection, compared with D-123.

In the case of “ENEKLHQRVEQLTR (SEQ ID NO: 56 - D-23) [Construct D-23]”, the “Proportion of transfected cells with apoptotic nuclei” value (from here on “Proportion of transfected cells”) in experiment [1] (setting [3]) was “active in causing apoptosis”.
Regarding “KLVELSAENEKLHQRVEQLTR (SEQ ID NO: 50 - D-123) [Construct D-123]”, in experiment [1] (setting [3]), the “Proportion of transfected cells” value is reported as “comparable rates to the full length D-1234 construct”.
Still for that read-out and setting: in the case of “KLVELSAENEKLHQ (SEQ ID NO: 54 - D-12) [Construct D-12]” it was “active in causing apoptosis”; in that of “RVEQLTRDLAGLRQ (SEQ ID NO: 58 - D-34) [Construct D-34]”, “active in causing apoptosis”.
Take “ELVELEA KNEKLKQ EVEQLER (ELVELEAKNEKLKQEVEQLER; SEQ ID NO: 100 - D-123EKE) [Construct D-123EKE]”: the “Proportion of transfected cells” value in experiment [1] (setting [4]) is given as “activity comparable or greater to that of the D-123 peptide”.
On the same count and under the same terms, in the case of “ELVELEA ENEKLHQ EVEQLER (ELVELEAENEKLHQEVEQLER; SEQ ID NO: 90 - D-123EWE) [Construct D-123EWE]” it was “activity comparable or greater to that of the D-123 peptide”.
Consider “ENEKLHQRVEQLTRDLAGLRQ (SEQ ID NO: 52 - D-234) [Construct D-234]”, for which, in experiment [1] (setting [3]), the “Proportion of transfected cells” value was “comparable rates to the full length D-1234 construct”.
Take “RQIKIWFQNRRMKWKKENEKLHQRVEQLTRDLAGLRQ (SEQ ID NO: 53 - CP-D-234)”: the “Reduction of cell numbers” value in experiment [2] was “lower and less consistent in activity than CP-D-123”.
